Data reported in PubChem BioAssay (NCI).
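Test compounds were applied to cells in 96-well plates for 48 hours at 5 doses. TGI: total growth inhibition.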

How the values were obtained:
Experiment in all cases: NCI-60 cell line screen, 48 h
IGROV1 ovarian = tested on: IGROV1 ovarian
OVCAR-4 ovarian = tested on: OVCAR-4 ovarian
U251 CNS = tested on: U251 CNS
SK-MEL-28 melanoma = tested on: SK-MEL-28 melanoma
TK-10 renal = tested on: TK-10 renal
SW-620 colon = tested on: SW-620 colon
SK-MEL-2 melanoma = tested on: SK-MEL-2 melanoma
UACC-257 melanoma = tested on: UACC-257 melanoma
SNB-19 CNS = tested on: SNB-19 CNS
SF-539 CNS = tested on: SF-539 CNS

Row | SMILES | TGI (IGROV1 ovarian) [µM] | TGI (OVCAR-4 ovarian) [µM] | TGI (U251 CNS) [µM] | TGI (SK-MEL-28 melanoma) [µM] | TGI (TK-10 renal) [µM] | TGI (SW-620 colon) [µM] | TGI (SK-MEL-2 melanoma) [µM] | TGI (UACC-257 melanoma) [µM] | TGI (SNB-19 CNS) [µM] | TGI (SF-539 CNS) [µM]
1 | CCOC(=O)/C=C1/C(CCCOCc2ccccc2)C2CCCC23CC2(CCN13)OCCO2 (stereo unspecified) | > 100 | > 100 | 51.4 | 51.3 | > 100 | > 100 | 36.9 | 53.9 | > 100 | –
2 | CC(C)(C)c1ccc2c(c1)C#Cc1cc3c(cc1OCCCO2)C#Cc1cc(C(C)(C)C)ccc1OCCCO3 | > 100 | > 100 | > 100 | > 100 | > 100 | > 100 | > 100 | > 100 | > 100 | > 100
3 | CCc1n[nH]c(=O)n1-c1ccc2ccccc2c1 | > 100 | > 100 | > 100 | > 100 | > 100 | > 100 | > 100 | > 100 | > 100 | > 100
4 | O=C(CCSC1=NCCCN1)c1ccc(F)cc1 | 44.4 | > 100 | 44.8 | 34.6 | 30.8 | 15.5 | 36.5 | 36.5 | 42.7 | 35.9
5 | CCN(C(=O)N[C@@H](C)C(=O)N[C@@H](Cc1ccccc1)C(=O)OC)c1ccccc1 | > 100 | > 100 | > 100 | 78.8 | > 100 | > 100 | > 100 | > 100 | > 100 | > 100
6 | Cc1cc(N(C)C)c2ccccc2[n+]1CCCCCCCCCC[n+]1c(C)cc(N(C)C)c2ccccc21 | > 20.6 | 22.2 | 11.5 | 3.54 | 18 | 16.5 | 4.98 | 2.3 | 8.19 | 8.15
7 | CSc1csc(-c2ccc(-c3ccc(-c4cc(SC)cs4)s3)s2)c1 | > 100 | > 100 | > 100 | > 100 | > 100 | > 100 | > 100 | > 100 | > 100 | > 100
8 | CN1Cc2c(nc(-c3ccccc3)c[n+]2[O-])N(C)C1 | > 100 | > 100 | > 100 | > 100 | > 100 | > 100 | > 100 | > 100 | > 100 | > 100
9 | O=C1/C(=C/c2ccc(Cl)cc2)CCCc2ccccc21 | 43.3 | 29.5 | 27.4 | 30.7 | 58.7 | 29 | 27.8 | 77.7 | 43.6 | 31.8
10 | CCOC(=O)CC/C(=N/Nc1ccc(Cl)cc1[N+](=O)[O-])C(=O)OCC | > 100 | > 100 | > 100 | > 100 | > 100 | > 100 | > 100 | > 100 | > 100 | > 100
11 | O=c1onc2n1-c1cc(Cl)ccc1C(=S)N1CSCC21 (stereo unspecified) | > 100 | > 100 | > 100 | > 100 | > 100 | > 100 | > 100 | > 100 | > 100 | –
12 | CCOC(=O)c1c2cccccc-2nc1Nc1cccc2c(C)ccnc12 | > 10 | > 10 | > 10 | > 10 | > 10 | > 10 | > 10 | > 10 | > 10 | > 10
13 | Cn1ncc2c(NCc3ccccc3)ncnc21 | > 100 | > 100 | > 100 | > 100 | > 100 | > 100 | – | > 100 | > 100 | > 100
14 | CC(C)(C)N=C(N)NC#N | > 100 | > 100 | > 100 | > 100 | > 100 | > 100 | > 100 | > 100 | > 100 | > 100
15 | C=C(C)[C@H]1C2=CC(C(=O)OC)=C(C[C@H](C(=C)C)[C@@H](O)[C@@H](O)C3=C[C@H]1OC3=O)O2 | > 100 | > 100 | > 100 | – | > 100 | > 100 | > 100 | > 100 | > 100 | > 100
16 | CC(C(=O)COCc1ccccc1)P1(=O)OC(C)(C)CN1C(C)(C)C (stereo unspecified) | – | > 100 | – | – | > 100 | > 100 | – | > 100 | – | > 100
17 | O=C(c1ccccc1)c1ccc2c(c1)NC(=O)c1ccccc1SSc1ccccc1C(=O)N2 | > 100 | > 100 | > 100 | > 100 | > 100 | > 100 | > 100 | > 100 | > 100 | > 100
18 | O=C(O)C(O)C(O)C(O)C(O)CO (stereo unspecified) | > 100 | > 100 | > 100 | > 100 | > 100 | > 100 | > 100 | > 100 | > 100 | > 100
19 | C[C@@H]1CCC2[C@@H](C)[C@@H](O[C@H]3O[C@@H]4O[C@@]5(C)CCC6[C@H](C)CCC([C@H]3C)[C@]64OO5)O[C@@H]3O[C@@]4(C)CCC1[C@@]23OO4 (stereo partly specified) | > 25 | > 25 | > 25 | > 25 | > 25 | > 25 | > 25 | > 25 | > 25 | > 25
20 | CC(C)Oc1cccc(N2C(=NCc3c[nH]c4ccccc34)Nc3ccncc3S2(=O)=O)c1 | > 100 | > 100 | > 100 | > 100 | 97.4 | > 100 | 51.3 | > 100 | > 100 | > 100
21 | CC1=C(C#N)c2nc3ccccc3n2C(=O)C1(C)CCO (stereo unspecified) | > 100 | > 100 | > 100 | > 100 | > 100 | > 100 | > 100 | > 100 | > 100 | > 100
22 | CCOC(=O)C(NC(=O)CC)(N1CCN(c2cc3c(cc2F)c(=O)c(C(=O)O)cn3C2CC2)CC1)C(F)(F)F (stereo unspecified) | > 100 | > 100 | > 100 | > 100 | > 100 | > 100 | > 100 | > 100 | > 100 | > 100
23 | CCCCOCCOC1=C(Cl)C(=O)c2c(O)ccc(O)c2C1=O | 2.47 | 1.99 | 3.55 | 1.23 | 1.81 | 0.387 | 2.78 | 1.15 | 1.82 | 2.44

Row | SMILES | TGI (IGROV1 ovarian) [µM] | TGI (OVCAR-4 ovarian) [µM] | TGI (U251 CNS) [µM] | TGI (SK-MEL-28 melanoma) [µM] | TGI (TK-10 renal) [µM] | TGI (SW-620 colon) [µM] | TGI (SK-MEL-2 melanoma) [µM] | TGI (UACC-257 melanoma) [µM] | TGI (SNB-19 CNS) [µM] | TGI (SF-539 CNS) [µM]
24 | COc1ccc(C(=O)NCCN(C)C)c2nc3ccccc3cc12 | 6.18 | 6.49 | 7.62 | 7.11 | 5.42 | 5.06 | 7.46 | 4.02 | 9.49 | 8.16
25 | O=C1CSC2(CC(/C=C/c3cccs3)=NN2c2cccc(S(=O)(=O)O)c2)N1c1nc2ccccc2s1 (stereo unspecified) | > 100 | > 100 | > 100 | > 100 | > 100 | > 100 | > 100 | > 100 | > 100 | > 100
26 | Nc1ncnc2c1ccn2C/C=C/CO | > 100 | > 100 | > 100 | > 100 | > 100 | > 100 | > 100 | > 100 | > 100 | > 100
27 | [N-]=[N+]=CC(=O)OC(CCl)CCl | > 100 | > 100 | > 100 | > 100 | > 100 | > 100 | > 100 | > 100 | > 100 | –
28 | CC1(C)C=CC(=O)C(O)C(C)(C)C1=O (stereo unspecified) | > 100 | > 100 | > 100 | > 100 | > 100 | > 100 | > 100 | > 100 | > 100 | > 100
29 | Cc1nc2ccccc2c(-n2cccn2)c1CCn1cccn1 | > 100 | > 100 | > 100 | > 100 | > 100 | > 100 | > 100 | > 100 | > 100 | > 100
30 | COc1ccc(/C=N/NC(=O)c2ccc(O)c(CN(C)C)c2)cc1 | > 100 | > 100 | > 100 | > 100 | > 100 | > 100 | > 100 | > 100 | > 100 | > 100
31 | CC(C)N1CCN(c2ccc(OCC3COC(Cn4cncn4)(c4ccc(Cl)cc4Cl)O3)cc2)CC1 (stereo unspecified) | 33.6 | 35.6 | 26.7 | 12.3 | 26.1 | 37.4 | 30.5 | 3.77 | > 57.4 | 27.3
32 | C=CCn1c(=O)ccn(/C(=C/C(=O)OCC)C(=O)OCC)c1=O | 29.7 | > 51.4 | 27.6 | 30.6 | 24.1 | 6.57 | 34.3 | 28.7 | > 58.3 | 49.5
33 | CNc1[nH]c(=S)nc2sc3c(c12)CCCC3 | > 75 | > 75 | > 75 | > 75 | > 75 | > 75 | > 75 | > 75 | > 75 | –
34 | Cc1ccc2c(c1)c1ccc3c(c1n2C)C(=O)C=CC3=O | > 10 | > 5.56 | > 10 | 4.76 | 3.76 | 2.37 | > 10 | 7.9 | > 10 | 4.93
35 | CO/N=C(/C(=O)OC)c1ccccc1COc1ccccc1C(F)(F)F | > 100 | 57.9 | > 100 | > 100 | > 100 | – | 73.2 | 88.7 | > 100 | 59.2
36 | Cc1ccnc(NC(=S)Nc2ccc([N+](=O)[O-])cc2)c1 | > 100 | > 100 | > 100 | > 100 | > 100 | > 100 | > 100 | > 100 | > 100 | 85.4
37 | O=C(NN1C(=O)CS(=O)(=O)C1c1ccc(C(F)(F)F)cc1)c1ccncc1 (stereo unspecified) | – | > 100 | > 100 | > 100 | > 100 | > 100 | > 100 | > 100 | > 100 | –
38 | CC(C)(CO)CNc1nc(N)nc(Cl)c1/C=N/O | 90.8 | > 100 | > 100 | > 100 | > 100 | > 100 | > 100 | > 100 | – | > 100
39 | Cc1ccsc1/C=N/Nc1cnccn1 | > 100 | > 100 | > 100 | > 100 | > 100 | > 100 | > 100 | > 100 | > 100 | –
40 | N#Cc1sc2c(c1OC(=O)c1ccc(C(F)(F)F)cc1)c(=O)n(-c1ccccc1)c(=S)n2-c1ccccc1 | 56.2 | > 100 | 97 | > 100 | > 100 | > 100 | – | > 100 | > 100 | 59
41 | Clc1sc(Cl)c2c1[C@@H](Cl)C[C@@H]2Br | > 100 | > 100 | > 100 | > 100 | > 100 | > 100 | > 100 | > 100 | > 100 | –
42 | Cc1c2c(c(C)n1-c1ccccc1)C(=O)N(CCN1CCN(c3cccc(C(F)(F)F)c3)CC1)C2=O | > 100 | > 100 | > 100 | – | > 100 | – | > 100 | > 100 | > 100 | > 100
43 | COc1cc(C=O)ccc1O | > 100 | > 100 | > 100 | > 100 | > 100 | > 100 | – | > 100 | > 100 | > 100
44 | O=C(CNc1ccc(Cl)cc1Cl)Nn1c(-c2ccccc2)nc2ccccc2c1=O | 42.2 | 32.2 | – | 43.7 | 36.1 | 34.4 | – | 48.6 | 33.9 | 35.6
45 | C=C(C)CNCCN | > 100 | > 100 | > 100 | > 100 | > 100 | > 100 | > 100 | > 100 | > 100 | –
